Measurements as given in patent US11291618B2, “Long wear skincare compositions” (priority 2019, dated 2022).
Where two headings read alike, the source gives them in different places. One block for each compound: values may come before it.

Key:
[1] = cited from earlier work
[2] = Penetration test using a Strat-M membrane in a Franz Cell, UPLC analysis
Experimental: In this study, exemplary actives with different hydrophilicity value were chosen. P is the partition coefficient, where a smaller P (more negative log P) indicates greater hydrophilicity. A penetration test was performed using a Strat-M® membrane, and the collected sample was then analyzed by Ultra-Performance Liquid Chromatography (UPLC). In the receptor chamber of a Franz Cell, 5.00 mL of the incubation medium was added as the collection phase. A Strat-M® membrane was loaded on top of the receptor chamber. The donor chamber was then added on top of the Strat-M® membrane, 0.80 mL of the crème was added to the donor chamber. […] At the end of that time period, 1.00 mL of the collection phase was withdrawn from the sampling port as the sample solution. The sample solution was filtered through a 0.45 micrometer (μm) syringe filter and then added into a 2.0 milliliter (mL) High Performance Liquid Chromatography (HPLC) vial. ACQUITY H UPLC from the Waters Corporation was used to analyze the collected samples from the Franz Cell study.
The amount of actives in the collection phase were analyzed by UPLC following the method described above.

effect of inclusion of the copolymer blend on delivery of the active [2]: enhanced the delivery
Compound: O=C1O[C@H]([C@@H](O)CO)C(O)=C1O[C@H]1O[C@H](CO)[C@@H](O)[C@H](O)[C@H]1O [ascorbyl glucoside]
Active Log P [1]: −4.79

Compound: Cn1c(=O)c2c(ncn2C)n(C)c1=O [caffeine]
% of Penetration ([2]; Franz Cell, room temperature, 48 hours): greater than 100%

effect of inclusion of the copolymer blend on delivery of the active ([2]; with versus without copolymer blend): did not enhance the delivery
Compound: NC(=O)c1cccnc1 [niacinamide]
